The target of assay [1] is T1, JAK1 (Homo sapiens (Human), UniProt P23458). Nature of the assay: AlphaScreen SureFire p-STAT3-(p-Tyr705)-IL6-TF-1-JAK1 cell-based assay. Conditions: TF-1 cells, IL6 30 ng/mL, pSTAT3. As for the experimental part: AlphaScreen SureFire Protocol p-STAT3-(p-Tyr705)-IL6-TF-1-JAK1 Cell-Based Assay
The JAK1 cell based assay described below is used to determine the JAK1 cellular potency of test compounds.
Cell preparation: Starve TF-1 cells in DMEM medium with 0.5% […] and 1× Pen/Strep at 37° C. Plate 100K cells per well in BD 96 well black plates with clear bottoms. Maintain the plates at RT for 30-60 minutes before incubating overnight at 37° C., and 5% CO2. Count cells using Vi-Cell counter, using a cell suspension at […] and plated 100 μL/well in […] Biocoat plates (Catalog #354640).
Test compound preparation and treatment: Prepare compounds at 1:3 serial dilutions in DMSO and further dilute into the medium. Test compounds in a range of 10 point concentrations from 20,000 to 1 nM. Add diluted compound to corresponding cell plates. Incubate the plates at 37° C. for 20 min. Add IL6 solution at the final concentration 30 ng/mL to corresponding cell plates and continue to incubate at 37° C. for 30 min. Remove media and add 50 μL 1× lysis buffer to each well.
pSTAT3 detection: Perform the following steps sequentially: make acceptor mix (activation buffer/reaction buffer/acceptor beads); transfer 4 μL lysate from 96 well plates to 384 well-Proxiplates; add 5 μL acceptor mix to 384 proxiplate plate(s) and seal plates with aluminum seal; shake 1-2 minutes on plate shaker; incubate plate at RT for 2 hr with gentle shaking; make donor mix (donor beads in dilution buffer); add 2 μL donor mix to assay plates; seal plates with aluminum seal; shake 1-2 minutes on plate shaker; incubate at RT for 2 hr with gentle shaking; read plate with Envision; protocol AlphaScreen Surefire 384.

The target in assay [2] is T1, JAK1. Kind of assay: JAK LanthaScreen Kinase Assay (TR-FRET), JAK1 in vitro enzyme assay. The conditions noted are these: 20.0 μM ATP. The assay is classed as biochemical. As for the experimental part: (§1) The JAK LanthaScreen™ Kinase Assay (Invitrogen) is used to determine the ability of test compounds to inhibit JAK1, JAK2, and JAK3 kinase activity. These are TR-FRET assay formats that use long-lifetime terbium labeled antibody as the donor species and GFP-STAT1 as the acceptor species. Use the TR-FRET ratio to monitor JAK kinase activity where an increase in phosphorylation of the GFP-STAT1 results in an increase in the TR-FRET ratio. Perform the kinase reaction using a 12.5 μl reaction volume in shallow black 384-well Proxiplate®. Add reagents to obtain final reaction conditions of […], 1.76 mM Triton X-100, ATP (20.0 μM for JAK1 and JAK3 or 5 μM for JAK2) enzyme assays, 10.0 mM MgCl2, 1 mM EGTA and 0.01% Brij-35, […] GFP-STAT1, 14 nM JAK1 enzyme for JAK1, 1.0 nM for JAK2 or 2.5 nM for JAK3 enzyme assays, and 4% DMSO and serial dilutions of test compound (diluted 1:3 from 20,000 to 1 nM). Following ATP/GFP-STAT1 addition, centrifuge the assay plates for 1 minute at 1000 revolutions per minute (RPM). Allow the plates to incubate at RT for 60 minutes and then add 12.5 μl of a stopping buffer containing 20 mM EDTA, 2 nM Terbium-anti-phosphorylated Signal Transducers and Activators of Transcription [phosphorylation Tyrosine 701 amino acid] […] Use ACTIVITYBASE® 4.0 to fit the percent inhibition and ten-point compound concentration data to a four-parameter logistic equation.
(TR-FRET usually uses a lanthanide donor and a delayed reading to cut background.)

The subject of assay [3] is paw swelling in Lewis rats. Kind of assay: Rat collagen-induced arthritis (CIA) model. The assay is classed as in vivo. As for the experimental part:
Rat Collagen-Induced Arthritis (CIA) Model
This protocol uses Lewis rats (weight 150-175 grams) from Charles River. On day 0, anesthetize rats with Isoflurane. On day 1, immunize intradermally with collagen emulsion in two sites on the lower lumbar region, above the base of the tail. Dose volume is a minimum of 0.4 mL per injection site. On day 8, anesthetize rats with Isoflurane and immunize intradermally with collagen emulsion in two sites on the lower lumbar region, above the base of the tail. Enroll rats into treatment groups on day 12, based on inflammation (redness and/or swelling) in their hind paws. Randomize animals for Treatment Phase based on ankle measurement values and body weight using block randomization allocation tool. Record ankle swelling on days 1, 8, and 11 and then three times per week following enrollment up to and including the day of necropsy. Dose compounds orally once a day starting on day 12 (after randomization) up to day 25. The compounds of Examples 6 and 7 were evaluated in the protocol essentially as described above.

Another assay deals with JAK2 (Homo sapiens (Human), UniProt O60674). Nature of the assay: JAK LanthaScreen Kinase Assay (TR-FRET), JAK2 in vitro enzyme assay. In kind it is biochemical. The conditions noted are these: 5 μM ATP. As for the experimental part:
as §1

Structures are written as SMILES.

T1 sequence (P23458 whole entry): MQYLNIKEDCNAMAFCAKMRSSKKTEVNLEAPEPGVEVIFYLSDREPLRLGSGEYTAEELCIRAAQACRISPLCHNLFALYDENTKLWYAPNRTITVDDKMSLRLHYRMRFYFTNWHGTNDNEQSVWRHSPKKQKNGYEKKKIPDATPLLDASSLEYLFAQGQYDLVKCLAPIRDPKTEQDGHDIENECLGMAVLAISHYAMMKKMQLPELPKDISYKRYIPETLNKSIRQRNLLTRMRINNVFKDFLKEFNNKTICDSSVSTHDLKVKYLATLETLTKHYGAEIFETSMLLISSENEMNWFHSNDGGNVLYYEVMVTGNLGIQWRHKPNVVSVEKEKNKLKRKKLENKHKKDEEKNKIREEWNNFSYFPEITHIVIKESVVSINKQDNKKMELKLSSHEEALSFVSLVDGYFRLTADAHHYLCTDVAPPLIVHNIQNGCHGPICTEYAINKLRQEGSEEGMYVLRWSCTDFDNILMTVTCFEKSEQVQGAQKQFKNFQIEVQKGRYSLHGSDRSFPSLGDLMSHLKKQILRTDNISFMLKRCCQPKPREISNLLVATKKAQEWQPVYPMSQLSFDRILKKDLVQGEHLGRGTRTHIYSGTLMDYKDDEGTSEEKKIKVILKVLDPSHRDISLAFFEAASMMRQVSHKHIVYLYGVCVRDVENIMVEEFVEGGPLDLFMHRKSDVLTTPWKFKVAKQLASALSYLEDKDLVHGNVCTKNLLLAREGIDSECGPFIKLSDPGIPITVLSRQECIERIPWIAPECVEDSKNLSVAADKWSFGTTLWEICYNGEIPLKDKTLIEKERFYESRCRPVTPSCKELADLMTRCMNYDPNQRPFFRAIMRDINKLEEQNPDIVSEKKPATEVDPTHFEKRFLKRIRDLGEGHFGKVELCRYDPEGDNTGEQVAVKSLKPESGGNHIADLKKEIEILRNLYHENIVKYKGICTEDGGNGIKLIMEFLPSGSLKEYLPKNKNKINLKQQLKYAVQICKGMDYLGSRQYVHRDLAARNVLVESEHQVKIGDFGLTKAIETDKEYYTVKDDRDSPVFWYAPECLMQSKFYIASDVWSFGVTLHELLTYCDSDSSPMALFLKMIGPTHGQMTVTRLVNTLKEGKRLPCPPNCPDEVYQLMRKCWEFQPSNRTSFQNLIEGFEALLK
JAK2, sequence (O60674 whole entry): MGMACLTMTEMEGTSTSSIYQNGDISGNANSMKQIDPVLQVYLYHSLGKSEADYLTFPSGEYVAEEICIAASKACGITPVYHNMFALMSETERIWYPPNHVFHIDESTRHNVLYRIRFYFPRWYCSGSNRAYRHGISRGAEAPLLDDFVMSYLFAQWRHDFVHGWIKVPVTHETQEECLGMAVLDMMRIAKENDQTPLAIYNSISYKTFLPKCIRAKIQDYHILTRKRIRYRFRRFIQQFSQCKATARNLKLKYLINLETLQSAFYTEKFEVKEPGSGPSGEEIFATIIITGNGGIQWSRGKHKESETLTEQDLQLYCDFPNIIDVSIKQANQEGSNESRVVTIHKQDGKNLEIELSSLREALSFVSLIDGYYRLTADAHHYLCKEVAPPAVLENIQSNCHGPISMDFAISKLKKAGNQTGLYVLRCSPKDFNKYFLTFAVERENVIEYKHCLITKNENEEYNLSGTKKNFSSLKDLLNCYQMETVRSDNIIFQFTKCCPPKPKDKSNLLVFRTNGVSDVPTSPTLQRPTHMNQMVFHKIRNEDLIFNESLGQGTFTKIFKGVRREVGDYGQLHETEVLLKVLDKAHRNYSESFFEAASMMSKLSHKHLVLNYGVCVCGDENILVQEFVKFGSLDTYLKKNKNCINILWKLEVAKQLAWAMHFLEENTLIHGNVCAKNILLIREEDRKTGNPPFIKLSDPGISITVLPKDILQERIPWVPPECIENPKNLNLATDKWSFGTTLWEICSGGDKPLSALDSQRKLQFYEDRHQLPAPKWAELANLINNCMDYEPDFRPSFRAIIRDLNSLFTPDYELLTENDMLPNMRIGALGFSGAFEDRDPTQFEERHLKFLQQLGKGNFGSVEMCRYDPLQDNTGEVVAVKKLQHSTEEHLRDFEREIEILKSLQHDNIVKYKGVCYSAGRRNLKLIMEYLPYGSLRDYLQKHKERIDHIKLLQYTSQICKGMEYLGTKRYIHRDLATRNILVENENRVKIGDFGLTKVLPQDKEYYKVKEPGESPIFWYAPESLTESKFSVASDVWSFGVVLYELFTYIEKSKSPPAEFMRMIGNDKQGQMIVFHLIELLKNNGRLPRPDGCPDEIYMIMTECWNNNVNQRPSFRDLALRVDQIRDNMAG

On to `COc1cc(Nc2cc(O[C@H]3CC[C@@H](NC[C@@H](O)C(F)(F)F)CC3)cc3c2ncn3C)nn1C` [Example 6, (2R)-1,1,1-Trifluoro-3-{[cis-4-({4-[(5-methoxy-1-methyl-1H-pyrazol-3-yl)amino]-1-methyl-1H-benzimidazol-6-yl}oxy)cyclohexyl]amino}propan-2-ol], for which the IC50 on JAK1 [1] was 0.168 ± 0.09 nM; against JAK1 [2], 5.25 ± 1.11 nM; against JAK2, 768 ± 220 nM. In addition, the “Rat paw swelling % inhibition at 3 mpk” value in assay [3] (3 mpk oral once a day day 12 to 25, naïve rat as 100% inhibition) is on record as 12%. In assay [3] (10 mpk oral once a day day 12 to 25, naïve rat as 100% inhibition), the “Rat paw swelling % inhibition at 10 mpk” value is 47%. In addition, in assay [3] (30 mpk oral once a day day 12 to 25, naïve rat as 100% inhibition), the “Rat paw swelling % inhibition at 30 mpk” value amounted to 79%.

A word on the IC50: it is the concentration at which inhibition is half-maximal.

(Values after patent US10323019B2, “Pyrazolylaminobenzimidazole derivatives as JAK inhibitors” (Eli Lilly and Company, priority 2016, dated 2019).)
